From patent US20090099213A1, “Ortho-Condensed Pyridine and Pyrimidine Derivatives (e.g., Purines) as Protein Kinases Inhibitors” (Astex Therapeutics Limited, priority 2004, published 2009)
Where two headings read alike, the source gives them in different places.

How the values were obtained:
PKB-PIF = biological target: T1, PKB-PIF (Homo sapiens, UniProt P31751); experiment: Measurement of PKB kinase inhibitory activity (IC50), radiometric filter plate assay; assay type: biochemical
T1 construct: fusion partner; made in house
Text: The inhibition of protein kinase B (PKB) activity by compounds can be determined essentially as described by Andjelkovic et al. (Mol. Cell. Biol. 19, 5061-5072 (1999)) but using a fusion protein described as PKB-PIF and described in full by Yang et al (Nature Structural Biology 9, 940-944 (2002)). The protein is purified and activated with PDK1 as described by Yang et al. The peptide AKTide-2T (H-A-R-K-R-E-R-T-Y-S-F-G-H-H-A-OH) obtained from Calbiochem (#123900) is used as a substrate. A final concentration of 0.6 nM enzyme is used in a buffer that includes 20 mM MOPS pH 7.2, 30 μM ATP/γ^33P-ATP and 25 μM substrate. Compounds are added in DMSO solution to a final DMSO concentration of 2.5%. The reaction is allowed to proceed for 20 minutes before addition of excess orthophosphoric acid to quench activity. The reaction mixture is transferred to a phosphocellulose filter plate where the peptide binds and the unused ATP is washed away. After washing, scintillant is added and the incorporated activity measured by scintillation counting.
The % inhibition of the PKB activity is calculated and plotted in order to determine the concentration of test compound required to inhibit 50% of the PKB activity (IC50).

PKA catalytic domain = biological target: T2, PKA catalytic domain (Homo sapiens, UniProt P17612); experiment: Measurement of PKA kinase inhibitory activity (IC50), radiometric filter plate assay; assay type: biochemical; conditions: 1 nM enzyme, 40 μM ATP, 20 minutes
T2 construct: using the PKA catalytic domain from Upstate Biotechnology (#14-440); purchased Upstate Biotechnology 14-440
Experimental: Compounds of the invention can be tested for PK inhibitory activity using the PKA catalytic domain from Upstate Biotechnology (#14-440) and the 9 residue PKA specific peptide ([…]), also from Upstate Biotechnology (#12-257), as the substrate. A final concentration of 1 nM enzyme is used in a buffer that includes 20 mM MOPS pH 7.2, 40 μM ATP/γ^33P-ATP and […] substrate. Compounds are added in dimethylsulphoxide (DMSO) solution to a final DMSO concentration of 2.5%. The reaction is allowed to proceed for 20 minutes before addition of excess orthophosphoric acid to quench activity. Unincorporated γ^33P-ATP is then separated from phosphorylated proteins on a Millipore MAPH filter plate. The plates are washed, scintillant is added and the plates are then subjected to counting on a Packard Topcount.
The % inhibition of the PKA activity is calculated and plotted in order to determine the concentration of test compound required to inhibit 50% of the PKA activity (IC50).

[1] = 0.6 nM enzyme, 30 μM ATP, 25 μM AKTide-2T substrate, 20 minutes, read-out: IC50 (PKB activity)

T1 sequence (P31751 with tags, fused parts or gaps limits assumed): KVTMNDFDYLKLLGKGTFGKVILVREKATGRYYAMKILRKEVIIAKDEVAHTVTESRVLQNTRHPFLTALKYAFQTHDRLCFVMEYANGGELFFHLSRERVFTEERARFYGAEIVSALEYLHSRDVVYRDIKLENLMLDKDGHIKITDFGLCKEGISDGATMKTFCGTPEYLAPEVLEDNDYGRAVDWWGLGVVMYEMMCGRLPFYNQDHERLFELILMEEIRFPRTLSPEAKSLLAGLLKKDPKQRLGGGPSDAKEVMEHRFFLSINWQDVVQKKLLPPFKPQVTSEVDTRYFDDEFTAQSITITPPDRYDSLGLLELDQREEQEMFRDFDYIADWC

Structure (SMILES) | IC50 (PKB-PIF; [1]) [µM] | IC50 (PKA catalytic domain) [µM] | IC50 (PKB-PIF) [µM]
NC(c1ccc(Cl)cc1)C1CCN(c2ccnc3[nH]ccc23)CC1 (single isomer, unassigned) [Example 32, C-(4-Chlorophenyl)-C-[1-(1H-pyrrolo[2,3-b]pyridin-4-yl)piperidin-4-yl]methylamine] | < 10 | – | –
CNCCCNc1ncnc2[nH]cnc12 [Example 1, N-Methyl-N′-(9H-purin-6-yl)-propane-1,3-diamine] | < 10 | – | –
CNCCCNc1ncnc2[nH]c(=O)[nH]c12 [Example 2, 6-(3-Methylamino-propylamino)-7,9-dihydro-purin-8-one] | < 10 | – | –
NC(CCNc1ncnc2[nH]cnc12)c1ccc(F)cc1 (centres unmarked) [Example 3, 1-(4-Fluorophenyl)-N^3-(9H-purin-6-yl)propane-1,3-diamine] | < 10 | – | –
NC(CCNc1ncnc2[nH]c(=O)[nH]c12)c1ccc(F)cc1 (centres unmarked) [Example 4, 6-[3-Amino-3-(4-fluorophenyl)propylamino]-7,9-dihydropurin-8-one] | < 10 | < 150 | –
NC(CCNc1ncnc2[nH]cnc12)c1ccc(Cl)cc1 (centres unmarked) [Example 5, 1-(4-Chlorophenyl)-N^3-(9H-purin-6-yl)propane-1,3-diamine] | < 10 | < 10 | –
CNCc1ccc(-c2ncnc3[nH]cnc23)cc1 [Example 6, Methyl-(4-(9H-purin-6-yl)benzyl)amine] | < 10 | < 10 | –
CNCc1cccc(-c2ncnc3[nH]cnc23)c1 [Example 7, Methyl-(3-(9H-purin-6-yl)benzyl)amine] | < 10 | < 10 | –
N#CCc1ccc(-c2ncnc3[nH]cnc23)cc1 [Example 8, (4-(9H-purin-6-yl)phenyl)acetonitrile] | < 50 | – | –
NCCc1ccc(-c2ncnc3[nH]cnc23)cc1 [Example 9, 2-(4-(9H-Purin-6-yl)phenyl)ethylamine] | < 50 | – | –
NCCc1cccc(-c2ncnc3[nH]cnc23)c1 [Example 10, 2-(3-(9H-purin-6-yl)phenyl)ethylamine] | – | – | < 10
NC(=O)C1CCN(c2ncnc3[nH]cnc23)CC1 [Example 11, 1-(9H-Purin-6-yl)piperidine-4-carboxylic Acid Amide] | < 50 | – | –
NCC1CCN(c2ncnc3[nH]cnc23)CC1 [Example 12, C-[1-(9H-Purin-6-yl)piperidin-4-yl]methylamine] | < 10 | < 10 | –
NC(c1ccccc1)C1CCN(c2ncnc3[nH]c(=O)[nH]c23)CC1 (centres unmarked) [Example 13, 6-[4-(Aminophenylmethyl)piperidin-1-yl]-7,9-dihydropurin-8-one] | < 10 | – | –
NC(c1ccc(Cl)cc1)C1CCN(c2ncnc3[nH]c(=O)[nH]c23)CC1 (centres unmarked) [Example 14, 6-[4-(Amino(4-chlorophenyl)methyl)piperidin-1-yl]-7,9-dihydropurin-8-one] | < 10 | < 10 | –
NCC1CCN(c2ncnc3[nH]c(=O)[nH]c23)CC1 [Example 15, 6-(4-Aminomethylpiperidin-1-yl)-7,9-dihydropurin-8-one] | < 10 | – | –

Structure (SMILES) | IC50 (PKB-PIF; [1]) [µM] | IC50 (PKA catalytic domain) [µM] | IC50 (PKB-PIF) [µM]
NCCCOc1cccc(-c2ncnc3[nH]cnc23)c1 [Example 16, 3-[3-(9H-Purin-6-yl)-phenoxy]-propylamine] | < 10 | – | –
NCC1CCN(c2ncnc3[nH]ncc23)CC1 [Example 17, C-[1-(1H-Pyrazolo[3,4-d]pyrimidin-4-yl)-piperidin-4-yl]-methylamine] | < 10 | < 10 | –
NCC1CCN(c2ncnc3[nH]ccc23)CC1 [Example 18, C-[1-(7H-Pyrrolo[2,3-d]pyrimidin-4-yl)-piperidin-4-yl]-methylamine] | < 10 | < 10 | –
NC(c1ccccc1)c1ccc(-c2ncnc3[nH]cnc23)cc1 (centres unmarked) [Example 19, C-Phenyl-C-[4-(9H-purin-6-yl)-phenyl]-methylamine] | < 10 | – | –
NC(Cc1ccccc1)c1ccc(-c2ncnc3[nH]cnc23)cc1 (centres unmarked) [Example 20, 2-Phenyl-1-[4-(9H-purin-6-yl)-phenyl]-ethylamine] | < 10 | < 10 | –
NC(Cc1ccccc1)C1CCN(c2ncnc3[nH]c(=O)[nH]c23)CC1 (centres unmarked) [Example 21, 6-[4-(1-Amino-2-phenylethyl)piperidin-1-yl]-7,9-dihydropurin-8-one] | < 50 | – | –
Clc1ccc(C2(c3ccc(-c4ncnc5[nH]cnc45)cc3)CCNCC2)cc1 [Example 22, 6-(4-[4-(4-Chlorophenyl)-piperidin-4-yl)-phenyl)-9H-purine] | < 10 | < 10 | –
Clc1ccc(C2(c3ccc(-c4ncnc5[nH]ccc45)cc3)CCNCC2)cc1 [Example 23, 4-{4-[4-(4-Chloro-phenyl)-piperidin-4-yl]-phenyl}-7H-pyrrolo[2,3-d]pyrimidine] | < 10 | < 10 | –
NC(c1ccccc1)C1CCN(c2ncnc3[nH]ccc23)CC1 (centres unmarked) [Example 24, C-Phenyl-C-[1-(7H-pyrrolo[2,3-d]pyrimidin-4-yl)-piperidin-4-yl]-methylamine] | < 10 | – | –
NC(c1ccc(Cl)cc1)C1CCN(c2ncnc3[nH]ccc23)CC1 (centres unmarked) [Example 25, C-4-Chlorophenyl-C-[1-(7H-pyrrolo[2,3-d]pyrimidin-4-yl)-piperidin-4-yl]-methylamine] | < 10 | < 10 | –
NC(c1ccc(Cl)cc1)C1CCN(c2ncnc3[nH]cnc23)CC1 (centres unmarked) [Example 26, C-(4-Chloro-phenyl)-C-[1-(9H-purin-6-yl)-piperidin-4-yl]-methylamine] | < 10 | – | –
Clc1ccc(C2(c3ccc(-c4ccnc5[nH]ccc45)cc3)CCNCC2)cc1 [Example 27, 4-{4-[4-(4-Chloro-phenyl)-piperidin-4-yl]-phenyl}-1H-pyrrolo[2,3-b]pyridine] | < 10 | – | –
NC(c1ccc(Cl)cc1)c1ccc(-c2ncnc3[nH]cnc23)cc1 (centres unmarked) [Example 28, C-(4-Chloro-phenyl)-C-[4-(9H-purin-6-yl)-phenyl]-methylamine] | < 10 | – | –
NC(c1ccc(Cl)cc1)C1CCN(c2ccnc3[nH]ccc23)CC1 (centres unmarked) [Example 29, C-(4-Chlorophenyl)-C-[1-(1H-pyrrolo[2,3-b]pyridin-4-yl)piperidin-4-yl]methylamine] | < 10 | < 10 | –
CNCC(c1ccc(Cl)cc1)c1ccc(-c2ccnc3[nH]ccc23)cc1 (centres unmarked) [Example 30, {2-(4-Chloro-phenyl)-2-[4-(1H-pyrrolo[2,3-b]pyridin-4-yl)-phenyl]-ethyl}-methyl-amine] | < 10 | < 10 | –
NCC1CCCN(c2ncnc3[nH]ccc23)C1 (centres unmarked) [Example 31, C-[1-(7H-Pyrrolo[2,3-d]pyrimidin-4-yl)piperidin-3-yl]methylamine] | < 10 | < 10 | –
